From US6030943A, “Dehydrodidemnin B as an L-type calcium channel enhancer” (priority 1998, dated 2000) come the findings set out here.

Starred links: 1 amine or outer side, 2 acyl side, 3 side chain; linkers in the order of their positions; H or OH if unused. Positions of bridges follow the written chain, without caps; N, C: chain ends. Non-standard residues stand in square brackets, D forms with d. Residues, ends and D or L forms follow the SMILES beside them. *: point of attachment. X1 = CC[C@H](C)[C@@H](N[*:1])[C@@H](O)CC(=O)O[C@H](C(=O)[C@H](C)C(=O)[*:2])C(C)C; NMeY = CN[C@@H](Cc1ccc(O)cc1)C(=O)O; dNMeL = CN[C@H](CC(C)C)C(=O)O; Pyruvoyl = CC(=O)C(=O)*

In one data set the test system is L-type calcium channel. The experiment in a line: Whole-cell patch clamp measurement of calcium current (ICa) in isolated human atrial myocytes. The format is cell-based. Conditions: for action on human atrial ICa (current amplitude): whole-cell patch clamp, 22° C., composite dose-response curve (FIG. 2), compared with cells not exposed to drug. As for the experimental part: Human atrial myocytes were obtained from specimens of human right atrial appendage obtained during surgery from hearts of patients undergoing cardiopulmonary bypass. Tissue samples were quickly immersed in a cardioplegia solution consisting of (in mmol/L): 50 KH2 PO4, 8 MgSO4, 10 NaHO3, 5 adenosine, 25 taurine, 140 glucose, and 100 mannitol, titrated to a pH of 7.4 and bubbled with 100% O2 at 0-4° C. Specimens were then minced into 0.5-1 mm cubes and transferred to a 50 ml conical tube containing an ultra-low calcium wash solution containing (in mmol/L); 137 NaCl, 5 KH2 PO4, 1 MgSO4, 10 taurine, 10 glucose, 5 HEPES, and 100 μmol/L (μM) EGTA; pH=7.4 (22-24° C.).
The tissue was next gently agitated by continuous bubbling with 100% O2 for 5 minutes. The tissue was then incubated in 5 ml of solution containing (in mmol/L): 137 NaCl, 5 KH2 PO4, 10 taurine, 10 glucose, 5 HEPES, supplemented with 0.1% bovine albumin, 2.2 mg/ml collagenase type V and 1.0 mg/ml protease type XXIV (Sigma Chemical), pH=7.4 (37° C.) and bubbled continuously with 100% O2. The supernatant was removed after 40 minutes and discarded. The chunks were incubated in a solution of the same ionic composition but supplemented with only collagenase and 100 μmol/L CaCl2.
Microscopic examination of the medium was performed every 5-10 minutes to determine the number and quality of the isolated cells. When the yield appears to be maximal, the cell suspension was centrifuged for 2 minutes and the resulting pellet was resuspended in a modified Kraftbruhe solution containing (in mmol/L): 25 KCl, 10 KH2 PO4, 25 taurine, 0.5 EGTA, 22 glucose, 55 glutamic acid, and 0.1% bovine albumin, pH=7.3 (22-24° C.). Cells were used within 8 hrs after isolation. […]
Ionic currents were measured using the whole-cell variant of the patch clamp technique. […]
Calcium (Ca) currents were measured using an external solution having the composition (in mM): 1.8 CaCl2, 137 NaCl, 20 CsCl, 4 KCl, 1 MgCl2, 10 HEPES, 10 dextrose pH=7.4 with NaOH. […]

Data set [1] can be described thus: Effect on blood pressure (statement, no method described). The following applies: in vivo.

Turning to `CC[C@H](C)[C@H]1NC(=O)[C@@H](NC(=O)[C@@H](CC(C)C)N(C)C(=O)[C@@H]2CCCN2C(=O)C(C)=O)[C@@H](C)OC(=O)[C@H](Cc2ccc(OC)cc2)N(C)C(=O)[C@@H]2CCCN2C(=O)[C@H](CC(C)C)NC(=O)[C@@H](C)C(=O)[C@H](C(C)C)OC(=O)C[C@@H]1O` [Aplidine, dehydrodidemnin B] (Pyruvoyl-P[dNMeL]T[X1]LP[NMeY](Me); ester 3-C), the “L-type calcium channel enhancement” value with L-type calcium channel (FIGS. 1A, 1B and 2) is “potent L-type calcium channel enhancer”. In addition, the “action on human atrial ICa (current amplitude)” value in the data set with L-type calcium channel is reported as “highly effective, producing a very large increase in current amplitude”. The “effect on blood pressure” value in data set [1] is on record as “no effect on blood pressure”.
Consider `CC[C@H](C)[C@H]1NC(=O)[C@@H](NC(=O)[C@@H](CC(C)C)N(C)C(=O)[C@@H]2CCCN2C(=O)C(C)O)[C@@H](C)OC(=O)[C@H](Cc2ccc(OC)cc2)N(C)C(=O)[C@@H]2CCCN2C(=O)[C@H](CC(C)C)NC(=O)[C@@H](C)C(=O)[C@H](C(C)C)OC(=O)C[C@@H]1O` (stereo partly shown) [Didemnin B], for which the “action on human atrial ICa (current amplitude)” value with L-type calcium channel was “no effect”.
